In patent US10556865B2, “Synergistic herbicidal composition containing certain pyridine or pyrimidine carboxylic acids and certain cereal and rice herbicides” (Dow AgroSciences, LLC, priority 2007, dated 2020):
Several values for one entry are separate records, joined by “and”; a condition that tells them apart may be missing. Identical values can stand only once.

What was measured:
Format in all cases: in vivo
[1] = system: Digitaria sanguinalis (L.) SCOP. (DIGSA); experiment: Postemergence herbicidal mixtures for weed control in direct seeded rice (greenhouse, visual % injury)
[2] = system: bird's-eye speedwell (Veronica persica L; VERPE); experiment: Postemergence herbicidal activity of mixtures in cereal crops (greenhouse, visual injury)
In short: (§1)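 Weeds grown in greenhouse (~14 h photoperiod, ~18/17 °C day/night) to second–third true leaf stage, sprayed postemergence with compound and second cereal herbicide alone or combined; solvent-blank controls. Injury scored visually after 20-22 days, 0–100% (complete kill); expected mixture activity = A+B−(A×B/100).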

[3] = system: wild pansy (Viola tricolor L; VIOTR); experiment: as above
In short: as §1

[4] = system: scented mayweed (Matricaria chamomila L; MATCH); experiment: as above
In short: as §1

[5] = system: wild mustard (Sinapis arvensis L; SINAR); experiment: as above
In short: (§2)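 Plants grown in greenhouse (~14 h photoperiod, ~18 °C day/17 °C night) to 2nd–3rd true leaf, then sprayed with Compound A or B (methyl ester, TEA or K salt) and a second cereal herbicide alone or combined at 187 L/ha; solvent blank controls. Visual injury (0–100%) scored after 20–22 days; Colby expected values calculated.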

[6] = system: ivy-leaved speedwell (Veronica hederifolia L; VERHE); experiment: as above; conditions: 12.5 g/ha
In short: as §2

[7] = system: kochia (Kochia scoparia L; KCHSC); experiment: as above
In short: as §2

[8] = system: Russian thistle (Salsola iberica L; SASKR); experiment: as above
In short: as §2

[9] = system: Fimbristylis miliacea (L.) VAHL (FIMMI); experiment: Herbicidal mixtures for weed control in transplanted paddy rice (in-water application, visual % injury)
Procedure: (§3) Weed seeds or nutlets of the desired test plant species were planted in puddled soil (mud) prepared by mixing a non-sterilized mineral soil (28 percent silt, 18 percent clay, and 54 percent sand, with a pH of about 7.3 to 7.8 and an organic matter content of about 1.0 percent) and water at a ratio of 100 kilograms (kg) of soil to 19 L of water. The prepared mud was dispensed in 250 mL aliquots into 480 mL non-perforated plastic pots with a surface area of 91.6 square centimeters leaving a headspace of 3 centimeters in each pot. Rice seeds were planted in Sun Gro MetroMix® 306 planting mixture, which typically has a pH of 6.0 to 6.8 and an organic matter content of about 30 percent, in plastic plug trays. Seedlings at the second or third leaf stage of growth were transplanted into 650 mL of mud contained in 960 mL non-perforated plastic pots with a surface area of 91.6 cm^2 4 days prior to herbicide application. The paddy was created by filling the 3 centimeter headspace of the pots with water. […] The plants were grown for 4-14 days in a greenhouse with an approximate 14 hr photoperiod which was maintained at about 29° C. during the day and 26° C. during the night. Nutrients were added as Osmocote (17:6:10, N:P:K+minor nutrients) at 2 g per cup. Water was added on a regular basis to maintain the paddy flood, and supplemental lighting was provided with overhead metal halide 1000-Watt lamps as necessary. The plants were employed for testing when they reached the second or third true leaf stage.
(§4) Treatments consisted of esters or salts of compound A, compound C, or compound D and various herbicidal components alone and in combination. For technical grade compounds, a weighed amount, determined by the highest rate to be tested, was placed in an individual 120 mL glass vial and was dissolved in 20 mL of acetone to obtain concentrated stock solutions. […] The concentrated stock solutions obtained were diluted with 20 mL of an aqueous mixture containing 2.5% Agri-dex crop oil concentrate (v/v). For formulated compounds, a measured amount, determined by the highest rate to be tested, was placed in an individual 120 mL glass vial and was dissolved in 20 mL of 2.5% (v/v) Agri-dex crop oil concentrate to obtain concentrated stock solutions. The concentrated stock solutions obtained were diluted with 20 mL of acetone. Applications were made by injecting an appropriate amount of the stock solution into the aqueous layer of the paddy. Control plants were treated in the same manner with the solvent blank. All treated plant material received the same concentration of acetone and crop oil concentrate.
(§5) Forms of compounds A, C, and D were applied on an acid equivalent basis. Other herbicidal components were applied on an active ingredient basis and included acetolactate synthase (ALS)-inhibiting herbicides penoxsulam (triazolopyrimidine chemical class) applied as Grasp SC, […] (sulfonylurea chemical class) applied as Sirius G, and bensulfuron-methyl (sulfonylurea chemical class) applied as Londax; acetyl CoA carboxylase (ACCase) inhibiting herbicides cyhalofop-butyl applied as Clincher G and fenoxaprop-p-ethyl applied as Ricestar HT; auxinic herbicide quinclorac applied as Facet 75 DF; phytoene desaturase inhibiting herbicide norflurazon; and p-hydroxyphenylpyruvate dioxygenase (HPPD) inhibiting herbicide sulcotrione applied as Mikado.
(§6) The treated plants and control plants were placed in a greenhouse as described above and water was added as needed to maintain a paddy flood. After 3 weeks the condition of the test plants as compared with that of the untreated plants was determined visually and scored on a scale of 0 to 100 percent where 0 corresponds to no injury and 100 corresponds to complete kill.

[10] = system: Eleocharis kuroguwai OHWI (ELOKU); experiment: as above
Procedure: (§7) Weed seeds or nutlets of the desired test plant species were planted in puddled soil (mud) prepared by mixing a non-sterilized mineral soil (28 percent silt, 18 percent clay, and 54 percent sand, with a pH of about 7.3 to 7.8 and an organic matter content of about 1.0 percent) and water at a ratio of 100 kilograms (kg) of soil to 19 L of water. The prepared mud was dispensed in 250 mL aliquots into 480 mL non-perforated plastic pots with a surface area of 91.6 square centimeters leaving a headspace of 3 centimeters in each pot. Rice seeds were planted in Sun Gro MetroMix® 306 planting mixture, which typically has a pH of 6.0 to 6.8 and an organic matter content of about 30 percent, in plastic plug trays. Seedlings at the second or third leaf stage of growth were transplanted into 650 mL of mud contained in 960 mL non-perforated plastic pots with a surface area of 91.6 cm^2 4 days prior to herbicide application. The paddy was created by filling the 3 centimeter headspace of the pots with water. When required to ensure good germination and healthy plants, a fungicide treatment and/or other chemical or physical treatment was applied. The plants were grown for 4-14 days in a greenhouse with an approximate 14 hr photoperiod which was maintained at about 29° C. during the day and 26° C. during the night. Nutrients were added as Osmocote (17:6:10, N:P:K+minor nutrients) at 2 g per cup. Water was added on a regular basis to maintain the paddy flood, and supplemental lighting was provided with overhead metal halide 1000-Watt lamps as necessary. The plants were employed for testing when they reached the second or third true leaf stage.
as §4, §5, §6

[11] = system: Sphenoclea zeylanica GAERTN. (SPDZE); experiment: as above
Procedure: as §7, §4, §5, §6

[12] = system: Scirpus maritimus L. (SCPMA); experiment: as above
Procedure: as §7, §4, §5, §6

[13] = system: Cyperus species (CYPSS); experiment: as above
Procedure: as §7, §4, §5, §6

[14] = system: Leptochloa chinensis (L.) NEES (LEFCH); experiment: as above
Procedure: as §7, §4, §5, §6

[15] = system: Echinochloa species (ECHSS); experiment: Herbicidal mixtures for weed control in transplanted paddy rice (in-water application, visual % injury after 3 weeks); conditions: ECHCG
Procedure: as §7, §4, §5, §6

[16] = system: Ipomoea hederacea (L.) JACQ. (IPOHE); experiment: Postemergence herbicidal mixtures for weed control in direct seeded rice (greenhouse, visual % injury after 3 weeks)
[17] = system: Polygonum pensylvanicum L. (POLPY); experiment: Postemergence herbicidal mixtures for weed control in direct seeded rice (greenhouse, visual % injury)
[18] = system: Scirpus species (SCPSS); experiment: Herbicidal mixtures for weed control in transplanted paddy rice (in-water application, visual % injury); conditions: SCPJU; 90 g/ha alone
Procedure: as §3, §4, §5, §6

[19] = system: Cyperus esculentus L. (CYPES); experiment: Postemergence herbicidal mixtures for weed control in direct seeded rice (greenhouse, visual % injury)
[20] = system: Cyperus iria L. (CYPIR); experiment: as above
[21] = system: wild oats (Avena fatua L; AVEFA); experiment: Postemergence herbicidal activity of mixtures in cereal crops (greenhouse, visual injury); conditions: 15 g/ha, Table 1
In short: (§8)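 Plants at second-third true leaf stage sprayed postemergence at 187 L/ha with compound and second cereal herbicide alone and combined; solvent blank controls. Visual injury scored 0-100% versus controls after 20-22 days; expected mixture effects by Colby's equation.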

[22] = system: windgrass (Apera spica-venti L; APESV); experiment: as above; conditions: Apera spica-venti, post-emergence, 15 g/ha, Table 1; read-out: APESV Ob
In short: as §8

[23] = system: annual ryegrass (Lolium multiflorum L; LOLMG); experiment: as above; conditions: 15 g/ha, Table 1
In short: as §8

[24] = system: green foxtail (Setaria viridis L; SETVI); experiment: as above; conditions: 15 g/ha, Table 1
In short: as §2

[25] = system: chickweed (Stellaria media L; STEME); experiment: as above; conditions: Stellaria media, post-emergence, 15 g/ha; read-out: STEME Ob
In short: as §2

[26] = system: lamb's-quarters (Chenopodium album L; CHEAL); experiment: as above; conditions: 15 g/ha
In short: as §2

[27] = system: blackgrass (Alopecurus myosuroides L; ALOMY); experiment: Postemergence herbicidal activity of mixtures in cereal crops (greenhouse, visual injury 0-100 percent after 20-22 days); conditions: 15 g/ha, Table 1
In short: as §8

[28] = system: Leptochloa chinensis (L.) NEES (LEFCH); experiment: Postemergence herbicidal mixtures for weed control in direct seeded rice (greenhouse, visual % injury); conditions: LEFCH; 70 g/ha alone

O=c1c(Cl)c[nH]c(Cl)c1Cl [Pyriclor]
% Injury Ob ([1]; 140 g/ha alone): 80%

O=C(Nc1ccc(F)cc1)c1cccc(Oc2cccc(C(F)(F)F)c2)n1 [Picolinafen]
VERPE Ob ([2]; 12.5 g/ha): 0% | VERPE Ob ([2]; 15 g/ha alone): 43% | VIOTR Ob ([3]; 12.5 g/ha): 0% | VIOTR Ob ([3]; 15 g/ha alone): 78% | MATCH Ob ([4]; 15 g/ha alone): 10% | SINAR Ob ([5]; 12.5 g/ha): 5% | VERHE Ob [6]: 5% | KCHSC Ob ([7]; 12.5 g/ha): 5% | SASKR Ob ([8]; 15 g/ha alone): 60%

CCN(CC)CC.COc1c(Cl)ccc(-c2cc(N)c(Cl)c(C(=O)O)n2)c1Cl [Compound C TEA]
% Injury Ob ([9]; 35 g/ha alone): 0% | % Injury Ob ([9]; 70 g/ha alone): 0% | % Injury Ob ([10]; 35 g/ha alone): 0% | % Injury Obs ([10]; 35 g/ha alone): 0% | % Injury Ob ([10]; 70 g/ha alone): 50% | % Injury Obs ([10]; 70 g/ha alone): 50% | % Injury Ob ([11]; 35 g/ha alone): 50% | % Injury Ob ([11]; 70 g/ha alone): 80% | % Injury Ob ([12]; 35 g/ha alone): 0% | % Injury Ob ([12]; 70 g/ha alone): 0% | % Injury Ob ([13]; CYPES, 35 g/ha alone): 0% | % Injury Ob ([13]; CYPES, 70 g/ha alone): 40% | % Injury Ob ([13]; CYPIR, 35 g/ha alone): 20% | % Injury Ob ([13]; CYPIR, 70 g/ha alone): 60% | % Injury Ob ([14]; 35 g/ha alone): 50% | % Injury Ob ([14]; 70 g/ha alone): 95% | % Injury Ob ([15]; 35 g/ha alone): 0% | % Injury Ob ([15]; 70 g/ha alone): 25%

CCCCOC(=O)[C@@H](C)Oc1ccc(Oc2ccc(C#N)cc2F)cc1 [Cyhalofop-butyl]
% Injury IPOHE Ob ([16]; alone 140 g/ha): 0% | % Injury IPOHE Ob ([16]; alone 280 g/ha): 0% | % Injury POLPY Ob ([17]; alone 100 g/ha): 0% | % Injury Ob [18]: 0% | % Injury Ob ([9]; 90 g/ha alone): 0% | % Injury CYPES Ob ([19]; alone 100 g/ha): 0% | % Injury CYPES Ob ([19]; alone 200 g/ha): 0% | % Injury Ob ([11]; 90 g/ha alone): 0% | % Injury Ob ([12]; 90 g/ha alone): 0% | % Injury Ob ([13]; CYPES, 90 g/ha alone): 0% | % Injury Ob ([13]; CYPIR, 90 g/ha alone): 0% | % Injury Ob ([14]; 90 g/ha alone): 50% | % Injury Ob ([15]; 90 g/ha alone): 50% | % Injury Ob ([15]; 180 g/ha alone): 75% and 95% | % Injury CYPIR Ob ([20]; alone 140 g/ha): 0% | % Injury CYPIR Ob ([20]; alone 280 g/ha): 0%

O=C(Nc1ccc(F)cc1F)c1cccnc1Oc1cccc(C(F)(F)F)c1 [Diflufenican, N-(2,4-difluorophenyl)-2-[3-(trifluoromethyl)phenoxy]-3-pyridinecarboxamide, reference compound]
AVEFA Ob [21]: 0% | pest or weed control at 15 g/ha [22]: 0% | LOLMG Ob [23]: 0% | pest or weed control at 12.5 g/ha ([2]; Veronica persica, post-emergence, 12.5 g/ha alone, read-out: VERPE Ob): 7% | pest or weed control at 15 g/ha ([2]; Veronica persica, post-emergence, 15 g/ha, read-out: VERPE Ob): 38% | pest or weed control at 12.5 g/ha ([3]; Viola tricolor, post-emergence, 12.5 g/ha alone, read-out: VIOTR Ob): 35% | pest or weed control at 15 g/ha ([3]; Viola tricolor, post-emergence, 15 g/ha, read-out: VIOTR Ob): 15% | pest or weed control at 12.5 g/ha ([4]; Matricaria, post-emergence, 12.5 g/ha alone, read-out: MATCH Ob): 7% | pest or weed control at 15 g/ha ([4]; Matricaria, post-emergence, 15 g/ha, read-out: MATCH Ob): 5% | SINAR Ob ([5]; 15 g/ha): 0% | KCHSC Ob ([7]; 12.5 g/ha alone): 12% | SETVI Ob [24]: 0% | pest or weed control at 15 g/ha [25]: 3% | CHEAL Ob [26]: 0% | ALOMY Ob [27]: 0%

O=C(O)CNCP(=O)(O)O [Glyphosate]
pest or weed control at 52.5 g/ha ([3]; Viola tricolor, post-emergence, read-out: VIOTR Ob): 52% | % Injury Ob [28]: 20% | % Injury Ob ([17]; POLPY, 70 g/ha alone): 0% | KCHSC Ob ([7]; 52.5 g/ha alone): 0% | SASKR Ob ([8]; 52.5 g/ha alone): 0% | % Injury Ob ([1]; 70 g/ha alone): 0%
